Assay results from patent US20040166509A1, “Detecting hormonally active compounds” (priority 2002, published 2004).

System: hepatic mRNA of adult male SHMs
Assay: SHM cDNA macroarray (30 genes): hepatic gene expression profiles of exposed fish
Type: in vivo, sheepshead minnow (SHM)

`CC/C(=C(/CC)c1ccc(O)cc1)c1ccc(O)cc1` [DES, diethylstilbestrol] was tested, and the Regulation (Estrogen receptor alpha (clone ID not given)) was “up-reg E2; EE2,”, the Regulation (clone SHM2-1: vitellogenin alpha (2)) was “up-reg E2; EE2,” and the Regulation (clone SHM11: Transferrin) was “dn-reg E2; EE2,”. The Regulation (clone SHM72-3: Coagulation Factor XI) was “up-reg E2; EE2,” and the Regulation (clone SHM76-2: Alphal-microglobulin/bikunin precursor (AMBP) protein) was “d-reg E2; EE2,”.
